In paper PMC8799644, “Decisive role of water and protein dynamics in residence time of p38α MAP kinase inhibitors” (Nature Communications, 2022):
pIC50: −log10 of the molar value. Where “and” joins values, the source holds several entries; their conditions need not be identical. Equal values may be shown once. Read-outs that look alike come from different tables or passages of the source.

Key:
p38α MAPK [1] = target: T1, p38α MAPK (Homo sapiens, UniProt Q16539); conditions: cited from earlier work
p38α MAPK [2] = target: T1, p38α MAPK; experiment: Cell-based eGFP-MK2 translocation assay, HCT116_eGFP-MK2 cells; design: endogenous in cells
Description: For optical analysis, cells were fixed using 4% PFA/PBS following DAPI staining and subjected to automated high content analysis (HCA) image acquisition using an Image Xpress micro XL microscope (Molecular Devices). 40× Plan Apo objective was used to acquire FITC and DAPI signals at nine sites per well. MetaXpress® Custom Module Editor Software (64 bit, 6.2.3.733, Molecular Devices) was trained for automated image analysis. DAPI signal was used to define nuclear region of interest (ROI) and DAPI-negative cytoplasmic ring for respective cytoplasmic ROI. Non-cellular FITC background signals were subtracted from defined ROIs. Nuclear to cytoplasmic ratios were calculated from cellular fluorescence intensities of eGFP-MK2 reporter within defined ROIs. Cells with ratios within the 10–90 percentiles of all measured cells were taken into account. […]
(§1) Supplementary Figure 2. Cell-based eGFP-MK2 translocation assay: HCT116 cell line.
(A) Human HCT116 cell line stably expressing eGFP-MK2 reporter under different treatment […]
nucleus. Upon activation of the MAPK/p38 pathway, eGFP-MK2 is translocated to the cytoplasm […]
microscopic images which were subjected to automated high content analysis to measure and calculate nuclear to cytoplasmic ratios of eGFP-MK2 signals providing the basis to evaluate inhibitory potency of p38a MAPK modulating compounds. […]
sites that were imaged per condition for each of 3 independent biological replicates. Scale bar:
Normalized fluorescence (Fl) intensity ratio of nucleus/cytoplasm.
Data are presented as mean ± SD of three biological replicates. […]

p38α MAPK [3] = target: T1, p38α MAPK; conditions: n = 2; cited from earlier work
p38α MAPK [4] = target: T1, p38α MAPK; experiment: HotSpot radiometric kinase assay (Reaction Biology); format: biochemical; conditions: n = 1; 10 μM ATP; read-out: IC50 isolated enzyme p38α MAPK HotSpot
Procedure: Hotspot^TM radiometric assay[49] was conducted by Reaction Biology (Reaction Biology Corp., Malvern, PA, USA). In brief, five-dose singleton measurements were conducted starting from 1 μM compound concentration with a ten-fold serial dilution (lowest concentration of 0.1 nM). ATP concentration of 10 μM was used in the assay.

p38α MAPK [5] = target: T1, p38α MAPK; experiment: Fluorescence polarization (Transcreener ADP) jump-dilution target residence time; format: biochemical; conditions: for millipolarization mP: Compound 1 run, replicas 1-3
p38α MAPK [6] = target: T1, p38α MAPK; experiment: Cell-based eGFP-MK2 translocation assay, DLD1_eGFP-MK2 cells; design: endogenous in cells
Description: For optical analysis, cells were fixed using 4% PFA/PBS following DAPI staining and subjected to automated high content analysis (HCA) image acquisition using an Image Xpress micro XL microscope (Molecular Devices). 40× Plan Apo objective was used to acquire FITC and DAPI signals at nine sites per well. MetaXpress® Custom Module Editor Software (64 bit, 6.2.3.733, Molecular Devices) was trained for automated image analysis. DAPI signal was used to define nuclear region of interest (ROI) and DAPI-negative cytoplasmic ring for respective cytoplasmic ROI. Non-cellular FITC background signals were subtracted from defined ROIs. Nuclear to cytoplasmic ratios were calculated from cellular fluorescence intensities of eGFP-MK2 reporter within defined ROIs. Cells with ratios within the 10–90 percentiles of all measured cells were taken into account.
Supplementary Figure 1. Cell-based eGFP-MK2 translocation assay: DLD1 cell line.
(A) Schematic overview of the cell-based eGFP-MK2 translocation assay. Active p38a MAPK phosphorylates its nuclear substrate MapKap2 (MK2) which leads to the exposure of the nuclear export signal and results in a cytoplasmic relocalization of MK2. Using a fluorescently labelled eGFP-MK2 as reporter, nuclear-cytoplasmic translocation can be used to monitor p38a MAPK […]
(B) Human DLD1 cell line stably […]
expressing eGFP-MK2 reporter under different treatment conditions.
(1 picture or pasted object on this page, not shown here)
Shown are microscopic images which were subjected to automated high content analysis to measure and calculate nuclear to cytoplasmic ratios of eGFP-MK2 signals providing the basis to evaluate inhibitory potency of p38a MAPK modulating […]
3 independent biological replicates. Scale bar: 50 µm. (C) Inhibition of eGFP-MK2 translocation by the compounds in DLD1_eGFP-MK2 cells. Normalized fluorescence (Fl) intensity ratio of […]
respectively. […] Data are presented as mean ± standard deviation (SD) of three biological replicates. Source data are provided as a Source Data […]
as §1
(A) Human HCT116 cell line stably expressing eGFP-MK2 reporter under different treatment

p38α MAP kinase = p38α MAP kinase (Homo sapiens, UniProt Q16539); experiment: ADP-Glo luminescence kinase assay (isolated enzyme); format: biochemical
Procedure: IC50 determinations were performed using the luminescence-based ADP-Glo^TM assay by Promega, which measures kinase activity based on ADP formation. All required reagents were prepared according to manufacturer’s protocol. […] The kinase reaction was started by adding the substrate and ATP. After 60 min incubation time, the reaction was terminated by adding ADP-Glo^TM reagent and an incubation time of 60 min. At last, ADP-Glo TM kinase detection reagent was added and incubated for 30 min. All reactions were carried out on a plate shaker at room temperature. […] The ratio between kinase reaction, ADP-Glo TM reagent and ADP-Glo TM kinase detection reagent was 1:1:2. The positive control consisted of p38α MAP kinase, substrate and buffer. The assay was performed in triplicates. The negative control consisted of all kinase reaction components without enzyme. Luminescence was detected using the plate reader FilterMax F5 by Molecular Devices with subsequent data analysis using GraphPad Prism version 7.0.0. for Windows (GraphPad Software, San Diego, CA, USA).

T1 sequence (Q16539 whole entry): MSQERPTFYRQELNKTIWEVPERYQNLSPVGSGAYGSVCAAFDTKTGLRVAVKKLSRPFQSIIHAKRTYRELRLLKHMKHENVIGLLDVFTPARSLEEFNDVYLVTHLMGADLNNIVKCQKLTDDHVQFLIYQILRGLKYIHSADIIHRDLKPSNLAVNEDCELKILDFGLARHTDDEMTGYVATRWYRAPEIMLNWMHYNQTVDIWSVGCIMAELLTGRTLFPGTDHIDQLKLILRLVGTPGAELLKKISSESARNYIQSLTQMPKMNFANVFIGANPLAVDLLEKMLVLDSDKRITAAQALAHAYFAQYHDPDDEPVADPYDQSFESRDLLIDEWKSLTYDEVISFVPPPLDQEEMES
Sequence of p38α MAP kinase (Q16539 whole entry): as above

SMILES: O=C(NCCN1CCOCC1)c1ccc2c(c1)C(=O)c1ccc(Nc3ccc(F)cc3F)cc1CC2 [Compound 1]
- pIC50 (p38α MAPK [1]; mean ± SD, n = 3, read-out: IC50 isolated enzyme p38α MAPK ELISA (mean)): 8.47
- pIC50 (p38α MAPK [1]; single experiments of source data, read-out: IC50 ELISA, individual determination): 8.45 and 8.46
- norm. FI (nucleus/ cytoplasm) (p38α MAPK [2]; HCT116_eGFP-MK2, conc. 100 pM): 0.8572
- norm. FI (nucleus/ cytoplasm) (p38α MAPK [2]; HCT116_eGFP-MK2, conc. 1e-9 M): 0.8754
- norm. FI (nucleus/ cytoplasm) (p38α MAPK [2]; HCT116_eGFP-MK2, conc. 3e-9 M): 0.8746
- norm. FI (nucleus/ cytoplasm) (p38α MAPK [2]; HCT116_eGFP-MK2, conc. 1e-8 M): 0.937
- norm. FI (nucleus/ cytoplasm) (p38α MAPK [2]; HCT116_eGFP-MK2, conc. 3e-8 M): 0.9809
- norm. FI (nucleus/ cytoplasm) (p38α MAPK [2]; HCT116_eGFP-MK2, conc. 1e-7 M): 1.0322
- norm. FI (nucleus/ cytoplasm) (p38α MAPK [2]; HCT116_eGFP-MK2, conc. 1e-6 M): 1.03
- norm. FI (nucleus/ cytoplasm) (p38α MAPK [2]; HCT116_eGFP-MK2, conc. 1e-5 M): 1.052
- norm. FI (nucleus/ cytoplasm) (p38α MAPK [2]; HCT116_eGFP-MK2, conc. 1e-5 M (last column, after 1e-10)): 0.8753
- pIC50 (p38α MAPK [2]; HCT116_eGFP-MK2 cells, 1 h compound, n = 3, read-out: IC50 cell-based MK2 translocation HCT116): 7.83
- Target residence time SPR (p38α MAPK [3]): 36 s
- pIC50 (p38α MAPK [4]): > 9.00
- millipolarization mP (p38α MAPK [5]; Time 15 min): 250.23 mP and 238.61 mP and 252.02 mP
- millipolarization mP (p38α MAPK [5]; Time 20 min): 235.80 mP and 229.96 mP and 227.02 mP
- millipolarization mP (p38α MAPK [5]; Time 25 min): 216.96 mP and 215.61 mP and 220.53 mP
- millipolarization mP (p38α MAPK [5]; Time 30 min): 204.83 mP and 208.80 mP and 213.25 mP
- millipolarization mP (p38α MAPK [5]; Time 35 min): 199.40 mP and 197.40 mP and 204.19 mP
- millipolarization mP (p38α MAPK [5]; Time 40 min): 190.24 mP and 185.07 mP and 187.77 mP
- millipolarization mP (p38α MAPK [5]; Time 45 min): 188.70 mP and 189.13 mP and 187.22 mP
- millipolarization mP (p38α MAPK [5]; Time 50 min): 189.84 mP and 186.39 mP and 191.23 mP
- millipolarization mP (p38α MAPK [5]; Time 55 min): 181.96 mP and 176.31 mP and 180.38 mP
- millipolarization mP (p38α MAPK [5]; Time 60 min): 189.85 mP and 181.69 mP and 188.39 mP
- millipolarization mP (p38α MAPK [5]; Time 65 min): 179.72 mP and 178.04 mP and 185.39 mP
- millipolarization mP (p38α MAPK [5]; Time 70 min): 177.53 mP and 176.90 mP and 187.97 mP
- millipolarization mP (p38α MAPK [5]; Time 75 min): 176.40 mP and 178.56 mP and 178.94 mP
- millipolarization mP (p38α MAPK [5]; Time 80 min): 170.47 mP and 176.86 mP and 179.41 mP
- millipolarization mP (p38α MAPK [5]; Time 85 min): 174.74 mP and 171.47 mP and 178.98 mP
- millipolarization mP (p38α MAPK [5]; Time 90 min): 181.04 mP and 173.23 mP and 180.81 mP
- millipolarization mP (p38α MAPK [5]; Time 95 min): 176.14 mP and 169.30 mP and 175.95 mP
- millipolarization mP (p38α MAPK [5]; Time 100 min): 170.48 mP and 168.26 mP and 169.78 mP
- millipolarization mP (p38α MAPK [5]; Time 105 min): 171.74 mP and 175.00 mP and 171.83 mP
- millipolarization mP (p38α MAPK [5]; Time 110 min): 170.01 mP and 167.74 mP and 170.08 mP
- millipolarization mP (p38α MAPK [5]; Time 115 min): 166.92 mP and 166.97 mP and 168.10 mP
- millipolarization mP (p38α MAPK [5]; Time 120 min): 173.62 mP and 170.72 mP and 174.62 mP
- millipolarization mP (p38α MAPK [5]; Time 125 min): 170.41 mP and 162.47 mP and 172.42 mP
- millipolarization mP (p38α MAPK [5]; Time 130 min): 163.64 mP and 172.89 mP and 166.09 mP
- millipolarization mP (p38α MAPK [5]; Time 135 min): 165.07 mP and 173.17 mP and 167.48 mP
- millipolarization mP (p38α MAPK [5]; Time 140 min): 163.17 mP and 162.11 mP and 161.18 mP
- millipolarization mP (p38α MAPK [5]; Time 145 min): 163.48 mP and 161.58 mP and 158.43 mP
- millipolarization mP (p38α MAPK [5]; Time 150 min): 162.36 mP and 163.56 mP and 167.43 mP
- millipolarization mP (p38α MAPK [5]; Time 155 min): 167.52 mP and 168.31 mP and 165.22 mP
- millipolarization mP (p38α MAPK [5]; Time 160 min): 157.97 mP and 163.71 mP and 167.13 mP
- millipolarization mP (p38α MAPK [5]; Time 170 min): 171.90 mP and 157.15 mP and 163.48 mP
- millipolarization mP (p38α MAPK [5]; Time 175 min): 163.57 mP and 163.80 mP and 163.61 mP
- millipolarization mP (p38α MAPK [5]; Time 180 min): 166.27 mP
- TRT (p38α MAPK [5]; individual replicas 1-3): 317 s and 109 s and 270 s
- TRT [sec] mean (p38α MAPK [5]; mean of 3 replicas): 232 s
- residence time (p38α MAPK [5]; mean ± SD, n = 3, 1/koff, jump dilution 1:100, 40 μM ATP, ATF2, read-out: Target residence time FP (converted)): 3.87 min
- norm. FI (nucleus/ cytoplasm) (p38α MAPK [6]; DLD1_eGFP-MK2, conc. 100 pM): 0.794
- norm. FI (nucleus/ cytoplasm) (p38α MAPK [6]; DLD1_eGFP-MK2, conc. 1e-9 M): 0.8106
- norm. FI (nucleus/ cytoplasm) (p38α MAPK [6]; DLD1_eGFP-MK2, conc. 3e-9 M): 0.8345
- norm. FI (nucleus/ cytoplasm) (p38α MAPK [6]; DLD1_eGFP-MK2, conc. 3e-8 M): 0.9192
- norm. FI (nucleus/ cytoplasm) (p38α MAPK [6]; DLD1_eGFP-MK2, conc. 1e-7 M): 0.9569
- norm. FI (nucleus/ cytoplasm) (p38α MAPK [6]; DLD1_eGFP-MK2, conc. 1e-6 M): 1.002
- norm. FI (nucleus/ cytoplasm) (p38α MAPK [6]; DLD1_eGFP-MK2, conc. 1e-5 M): 1.014
- norm. FI (nucleus/ cytoplasm) (p38α MAPK [6]; DLD1_eGFP-MK2, conc. 1e-5 M (last column, after 1e-10)): 0.8162
- pIC50 (p38α MAPK [6]; DLD1_eGFP-MK2 cells, 1 h compound, n = 3, read-out: IC50 cell-based MK2 translocation DLD1): 7.59
- pIC50 (p38α MAP kinase; mean ± SD, 150 μM ATP, read-out: IC50 isolated enzyme p38α MAPK ADP-Glo (mean)): 7.50 and 7.51
- pIC50 (p38α MAP kinase; single experiments of source data, read-out: IC50 ADP Glo, individual determination): 7.46 and 7.40 and 7.72
